Source: PubChem BioAssay (NCI)
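Five concentrations, 48 hours, 96-well plates. Abbreviation: GI50, concentration required for 50% inhibition of growth. At the TGI there is no net growth.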

Legend:
Test in all cases: DTP human tumour cell line panel, 48 h
[1] = tested on: MDA-MB-435
[2] = tested on: HCT-15 colon
[3] = tested on: SF-539 CNS
[4] = tested on: MDA-MB-231 breast
[5] = tested on: UO-31 renal
[6] = tested on: NCI-H522 lung
[7] = tested on: DU-145 prostate
[8] = tested on: U251 CNS
[9] = tested on: A498 renal
[10] = tested on: MCF7 breast
[11] = tested on: PC-3 prostate
[12] = tested on: UACC-62 melanoma
[13] = tested on: EKVX NSCLC
[14] = tested on: NCI/ADR-RES ovarian
[15] = tested on: SF-295 CNS
[16] = tested on: HCT-116 colon
[17] = tested on: SW-620 colon
[18] = tested on: SNB-19 CNS
[19] = tested on: NCI-H226 lung
[20] = tested on: NCI-H23 lung
[21] = tested on: KM12 colon
[22] = tested on: OVCAR-4 ovarian
[23] = tested on: TK-10 renal
[24] = tested on: RPMI-8226 leukemia
[25] = tested on: A549 NSCLC
[26] = tested on: M14 melanoma
[27] = tested on: UACC-257 melanoma
[28] = tested on: HL-60(TB) leukemia
[29] = tested on: SF-268 CNS
[30] = tested on: HOP-62 NSCLC
[31] = tested on: SK-MEL-28 melanoma
[32] = tested on: OVCAR-8 ovarian
[33] = tested on: HOP-92 NSCLC
[34] = tested on: 786-0 renal
[35] = tested on: NCI-H460 lung
[36] = tested on: SK-MEL-5 melanoma
[37] = tested on: BT-549 breast
[38] = tested on: HS 578T breast
[39] = tested on: OVCAR-3 ovarian
[40] = tested on: HCC-2998 colon
[41] = tested on: CCRF-CEM leukemia
[42] = tested on: MALME-3M melanoma
[43] = tested on: ACHN renal
[44] = tested on: HT29 colon
[45] = tested on: RXF 393 renal
[46] = tested on: SK-MEL-2 melanoma
[47] = tested on: MOLT-4 leukemia
[48] = tested on: OVCAR-5 ovarian
[49] = tested on: CAKI-1 renal
[50] = tested on: COLO 205 colon
[51] = tested on: SK-OV-3 ovarian
[52] = tested on: K-562 leukemia
[53] = tested on: IGROV1 ovarian
[54] = tested on: SN12C renal
[55] = tested on: T-47D breast
[56] = tested on: LOX IMVI melanoma

## COc1ccc(-c2n[nH]nc2-c2csc3ccccc23)cc1OC
[1]
  GI50: 0.337 µM
  TGI: 3.52 µM
[2]
  GI50: 1.67 µM
  TGI: 14.7 µM
[3]
  GI50: 1.84 µM
  TGI: 5.79 µM
[4]
  GI50: 3.21 µM
  TGI: 35.5 µM
[5]
  GI50: 2.78 µM
  TGI: 20.8 µM
[6]
  GI50: 0.601 µM
  TGI: 2.81 µM
[7]
  GI50: 3.77 µM
  TGI: > 100 µM
[8]
  GI50: 2.19 µM
  TGI: 11.4 µM
[9]
  GI50: 2.96 µM
  TGI: 12.1 µM
[10]
  GI50: 1.45 µM
  TGI: 15.1 µM
[11]
  GI50: 3.08 µM
  TGI: 35.4 µM
[12]
  GI50: 2.77 µM
  TGI: 22.2 µM
[13]
  GI50: 3.42 µM
  TGI: > 100 µM
[14]
  GI50: 2.39 µM
  TGI: 23.2 µM
[15]
  GI50: 2.33 µM
  TGI: 11.7 µM
[16]
  GI50: 2.84 µM
  TGI: 15.3 µM
[17]
  GI50: 3.09 µM
  TGI: 43.9 µM
[18]
  GI50: 4.67 µM
  TGI: 45.1 µM
[19]
  GI50: 13.2 µM
  TGI: 74.6 µM
[20]
  GI50: 3.93 µM
  TGI: 27.9 µM
[21]
  GI50: 2.28 µM
  TGI: 24.1 µM
[22]
  GI50: 6.33 µM
  TGI: > 100 µM
[23]
  GI50: 2.98 µM
  TGI: 19.8 µM
[24]
  GI50: 3.64 µM
  TGI: 59 µM
[25]
  GI50: 4.52 µM
  TGI: 70.9 µM
[26]
  GI50: 1.95 µM
  TGI: 15.6 µM
[27]
  GI50: 10.9 µM
  TGI: 55.6 µM
[28]
  GI50: 1.7 µM
  TGI: 25.1 µM
[29]
  GI50: 3.69 µM
  TGI: 41.8 µM
[30]
  GI50: 2.18 µM
  TGI: 24.3 µM
[31]
  GI50: 4.63 µM
  TGI: 48.5 µM
[32]
  GI50: 4.24 µM
  TGI: 39.1 µM
[33]
  GI50: 0.922 µM
  TGI: 6.69 µM
[34]
  GI50: 3.26 µM
  TGI: 22.6 µM
[35]
  GI50: 3.56 µM
  TGI: 18.9 µM
[36]
  GI50: 2.83 µM
  TGI: 8.79 µM
[37]
  GI50: 2.17 µM
  TGI: 12.5 µM
[38]
  GI50: 2.25 µM
  TGI: 10.6 µM
[39]
  GI50: 1.94 µM
  TGI: 7.63 µM
[40]
  GI50: 4.21 µM
  TGI: 19.4 µM
[41]
  GI50: 3.29 µM
  TGI: 32.9 µM
[42]
  GI50: 13.3 µM
  TGI: 62.1 µM
[43]
  GI50: 3.94 µM
  TGI: 76 µM
[44]
  GI50: 2.78 µM
  TGI: 10.6 µM
[45]
  GI50: 2.11 µM
  TGI: 6.71 µM
[46]
  GI50: 1.44 µM
  TGI: 7.65 µM
[47]
  GI50: 3.05 µM
  TGI: 27.7 µM
[48]
  GI50: 7.91 µM
  TGI: > 100 µM
[49]
  GI50: 3.69 µM
  TGI: 34.2 µM
[50]
  GI50: 2.82 µM
  TGI: 11.7 µM
[51]
  GI50: 2.37 µM
  TGI: 19.3 µM
[52]
  GI50: 0.516 µM
  TGI: > 100 µM
[53]
  GI50: 4.21 µM
  TGI: > 100 µM
[54]
  GI50: 8.8 µM
  TGI: 79.9 µM
[55]
  GI50: 2.83 µM
  TGI: 32.6 µM
[56]
  GI50: 3.04 µM
  TGI: 15.7 µM
